Data published in patent publication US12077501B2, “Compounds and compositions for intracellular delivery of agents” (ModernaTX, Inc., priority 2017, dated 2024).

Tests used:
[1] = Particle size and polydispersity index of nanoparticle compositions (Zetasizer Nano ZS); assay type: physicochemical; details: Table 1c; nanoparticle compositions
Method: A Zetasizer Nano ZS (Malvem Instruments Ltd, Malvem, Worcestershire, UK) can be used to determine the particle size, the polydispersity index (PDI) and the zeta potential of the nanoparticle compositions in 1×PBS in determining particle size and 15 mM PBS in determining zeta potential.

[2] = Encapsulation efficiency of RNA (QUANT-IT RIBOGREEN RNA assay); assay type: physicochemical; details: Table 1c; nanoparticle compositions
In short: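 RiboGreen fluorescence (ex about 480, em about 520 nm) compares nanoparticle samples left intact versus disrupted with 2% Triton X-100 (15 min, 37° C). Samples are first brought to roughly 5 μg/mL in 10 mM Tris-HCl, 1 mM EDTA, pH 7.5; percent free RNA equals the blank-corrected intact/disrupted signal ratio.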

[3] = pKa of nanoparticle compositions; assay type: physicochemical; details: Table 1c
[4] = Lipid purity change after storage in EtOH for 96 h at 25 or 37 °C; assay type: physicochemical
Method: Nanoparticle compositions including a therapeutic and/or prophylactic agent can be optimized according to the selection of a compound according to one of formulae (I), (Ia1)-(Ia10), (Ib), (Ic), (Id), (Id1)-(Id10), (Ie), (Ie1)-(Ie6), (II), (IIa), (III), and (IIIa), the selection of additional lipids, the amount of each lipid in the lipid component, and the wt:wt ratio of the lipid component to the therapeutic and/or prophylactic agent, as described herein. Initial studies were performed to compare the delivery efficiency of nanoparticle compositions including various compounds according to one of formulae (I), (Ia1)-(Ia10), (Ib), (Ic), (Id), (Id1)-(Id10), (Ie), (Ie1)-(Ie6), (II), (IIa), (III), and (IIIa). The cationic lipid MC3 is a current standard in the art. Also determined was the stability of nanoparticles of the disclosure, i.e., the purity after storage in EtOH for 96h at 25° C. or 37° C. (Table Id).

[5] = system: hEPO expression; test: hEPO expression in CD-1 mice compared with MC3; assay type: in vivo; details: intravenous, 0.5 mpk, Table 7e
Text: In contrast, hEPO expression in rats induced by administration of a nanoparticle composition including a compound according to one of formulae (I), (Ia1)-(Ia6), (Ib), (II), (IIa), (III), and (IIIa) was substantially […] than that measured for MC3. […] Tables 7c and 7d show additional protein expressions and clearance data from compositions with various compounds disclosed herein as compared to with MC3. Tables 7e, 7f and 7g show hEPO expression data in CD-1 mice at a dose of 0.5 mpk.

[6] = Lipid clearance: % dose remaining in liver of CD-1 mice; assay type: in vivo; details: intravenous, 0.5 mg/kg, CD-1 mouse, Table 8a
In short: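 Expression and clearance data were obtained for nanoparticle compositions with various test compounds, run in parallel with an MC3 composition.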

Row | SMILES | PDI [1] | Size (nm) [1] | EE (%) [2] | pKa [3] | Lipid % change purity in EtOH, 25° C., 96 h [4] | Lipid % change purity in EtOH, 37° C., 96 h [4] | AUC (p/s*h) CD-1 mice 0.5 mpk [5] | % Dose Remaining 24 hr [6]
1 | CCCCCCCCCCCCCCN(CCCCCC(=O)OCCCCCCC)CC(=O)N1CCN(C(=O)CN(CCCCCCCCC)CCN(CCCCCCCCC)CCCCCCCCC)CC1 [Compound 91, Heptyl 6-((2-(4-(N-(2-(dinonylamino)ethyl)-N-nonylglycyl)piperazin-1-yl)-2-oxoethyl)(tetradecyl)amino)hexanoate] | 0.21 | 82.9 nm | 97.6% | 6.74 | 1% | 2.3% | 3.22E+07 p/s*h | 9.19%
2 | CCCCCCCCCCCCCCN(CCCOC(=O)CCCCCCCCC)CCC1CCN(C(=O)CN(CCCCCCCCC)CCN(CCCCCCCCC)CCCCCCCCC)CC1 [Compound 92, 3-((2-(1-(N-(2-(Dinonylamino)ethyl)-N-nonylglycyl)piperidin-4-yl)ethyl)(tetradecyl)amino)propyl decanoate] | 0.17 | 73.8 nm | 97.1% | 6.53 | 4.5% | 9% | 8.25E+07 p/s*h | 0.10%
3 | CCCCCCCCCCCCCCN(CCCCCCCC(=O)OCCCCC)CCC1CCN(C(=O)CN(CCCCCCCCC)CCN(CCCCCCCCC)CCCCCCCCC)CC1 [Compound 93, Pentyl 8-((2-(1-(N-(2-(dinonylamino)ethyl)-N-nonylglycyl)piperidin-4-yl)ethyl)(tetradecyl)amino)octanoate] | 0.17 | 75.6 nm | 97.7% | 6.6 | 0% | 2.2% | 8.63E+07 p/s*h | 10.37%
4 | CCCCCCCCCCCCCCN(CCCCCC(=O)OCCCCCCC)CCC1CCN(C(=O)CN(CCCCCCCCC)CCN(CCCCCCCCC)CCCCCCCCC)CC1 [Compound 94, Heptyl 6-((2-(1-(N-(2-(dinonylamino)ethyl)-N-nonylglycyl)piperidin-4-yl)ethyl)(tetradecyl)amino)hexanoate] | 0.20 | 74.6 nm | 98.4% | 6.65 | 5.9% | 8.3% | 2.39E+07 p/s*h | 18.52%
5 | CCCCCCCCCN(CCCCCCCCC)CCN(CCCCCCCCC)CC(=O)N1CCC(CCOC(=O)CN(CCCCCCCCC)CCCCCCCCC)C1 (stereo not drawn) [Compound 103, 2-(1-(N-(2-(Dinonylamino)ethyl)-N-nonylglycyl)pyrrolidin-3-yl)ethyl Dinonylglycinate] | 0.17 | 76.9 nm | 99.0% | 7.25 | 1.5% | 5.7% | 1.82E+08 p/s*h | 71.45%
6 | CC/C=C\COC(=O)CCCN(CCCCCCCCC)CC(=O)N1CCN(C(=O)CN(CCCCCCCCC)CCN(CCCCCCCCC)CCCCCCCCC)CC1 [Compound 107, (Z)-Pent-2-en-1-yl 4-((2-(4-(N-(2-(dinonylamino)ethyl)-N-nonylglycyl)piperazin-1-yl)-2-oxoethyl)(nonyl)amino)butanoate] | 0.19 | 80.6 nm | 96.6% | 6.99 | 4% | 3.6% | 1.76E+08 p/s*h | 38.15%
7 | CCCCCCCCCN(CCCCCCCCC)CCN(CCCCCCCCC)CC(=O)N1CCN(C(=O)CN(CCCCCCCCC)CCCCCOC(=O)OC)CC1 [Compound 109, 5-((2-(4-(N-(2-(Dinonylamino)ethyl)-N-nonylglycyl)piperazin-1-yl)-2-oxoethyl)(nonyl)amino)pentyl methyl carbonate] | 0.16 | 75.0 nm | 95.0% | 7.27 | 0% | 4.1% | 5.56E+07 p/s*h | 0.54%
8 | CCCCCCCCCN(CCCCCCCCC)CCN(CCCCCCCCC)CC(=O)N1CCN(C(=O)C(C)N(CCCCCCCCC)CCCC(=O)OCCCCC)CC1 (stereo not drawn) [Compound 111, Pentyl 4-((1-(4-(N-(2-(dinonylamino)ethyl)-N-nonylglycyl)piperazin-1-yl)-1-oxopropan-2-yl)(nonyl)amino)butanoate] | 0.21 | 86.8 nm | 96.7% | 6.82 | 6.3% | 6.5% | 1.75E+08 p/s*h | 59.89%
9 | CCCCCCCCCN(CCCCCCCCC)CCN(CCCCCCCCC)CC(=O)N1CCC(CCOC(=O)CN(CCCCCCCCC)CCCCCCCCC)CC1 [Compound 114, 2-(1-(N-(2-(Dinonylamino)ethyl)-N-nonylglycyl)piperidin-4-yl)ethyl dinonylglycinate] | 0.23 | 77.2 nm | 98.1% | 6.64 | 2.6% | 9% | 7.86E+07 p/s*h | 38.43%
10 | CCCCCCCCCN(CCCCCCCCC)CCN(CCCCCCCCC)CC(=O)OC1CCC(OC(=O)CN(CCCCCCCCC)CCCCCCCCC)CC1 (stereo not drawn) [Compound 115, 4-((N-(2-(Dinonylamino)ethyl)-N-nonylglycyl)oxy)cyclohexyl dinonylglycinate] | 0.16 | 66.0 nm | 97.0% | 5.01 | 43.1% | 59.5% | 2.31E+06 p/s*h | 82.18%
11 | CCCCCCCCCCCCCCN(CCCCCCCCCCCC(=O)OC)CCC1CCN(C(=O)CN(CCCCCCCCC)CCN(CCCCCCCCC)CCCCCCCCC)CC1 [Compound 116, Methyl 12-((2-(1-(N-(2-(dinonylamino)ethyl)-N-nonylglycyl)piperidin-4-yl)ethyl)(tetradecyl)amino)dodecanoate] | 0.19 | 77.1 nm | 98.9% | 6.55 | 2.2% | 2% | 1.01E+08 p/s*h | 6.22%
12 | CCCCCCCCCCCCCCN(CCCCCCCCCCCC(=O)OC)CC(=O)N1CCN(C(=O)CN(CCCCCCCCC)CCN(CCCCCCCCC)CCCCCCCCC)CC1 [Compound 117, Methyl 12-((2-(4-(N-(2-(dinonylamino)ethyl)-N-nonylglycyl)piperazin-1-yl)-2-oxoethyl)(tetradecyl)amino)dodecanoate] | 0.20 | 84.6 nm | 95.2% | 6.71 | 2.9% | 4.7% | 6.91E+07 p/s*h | 2.03%
